From patent US9914732B2, “Diazabicyclo[4.3.1]decane derivatives for treatment of psychiatric disorders” (Max-Planck-Gesellschaft zur Forderung der Wissenschaften …, priority 2014, dated 2018)

Legend:
[1] = biological target: T1, FKBP51 (Homo sapiens, UniProt Q13451); assay: Fluorescence polarization (FP) assay, binding to the FK506-binding domain of FKBP51; details: FK506-binding domain of FKBP51 (FKBP51FK1), competition with fluorescent ligand 2b
T1 sequence (Q13451 42-130 limits assumed): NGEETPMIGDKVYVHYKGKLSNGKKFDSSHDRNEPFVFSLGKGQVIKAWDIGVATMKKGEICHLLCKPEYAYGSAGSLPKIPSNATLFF
Protocol: (§1) In the present invention, in vitro fluorescence polarization assays with the compounds of the general formula (I) were performed to determine the binding affinities to FKBP51 and FKBP52 or to the isolated FK506-binding domains of FKBP51 and FKBP52 ([…]). Binding to the isolated FK506-binding domains is reliably indicative of binding to the full length proteins. The affinities for the isolated FK506-binding domains and for full-length FKBP51 or FKBP52 are the same for all compounds tested so far (Kozany et al, ChemBioChem 2009, 10, 1402-1410).
(§2) Example 11: Fluorescence Polarization (FP) Assays
(§3) In-vitro fluorescence polarization assays were performed to determine the binding affinities for FKBP51 and 52 according to a literature procedure (Kozany, C.; Marz, A.; Kress, C.; Hausch, F., Fluorescent probes to characterise FK506-binding proteins. Chembiochem 2009, 10, (8), 1402-10).
(§4) For fluorescence polarization assays the fluorescent ligand 2b was dissolved in HEPES (20 mm, pH 8), Triton-X100 (0.01%), at double the concentration required for the final sample. The target protein was also diluted in this assay buffer at double the highest concentration required for the final sample. This protein stock was used for a 1:1 serial dilution.
(§5) The fluorescent ligand 2b was diluted in assay buffer to a concentration double the final concentration (20 nM 2b). The inventive compound was dissolved in DMSO to reach a 100-times concentrated stock solution. This was used for a 1:1 serial dilution in DMSO. Every sample of this serial dilution was diluted by a factor of 50 in assay buffer supplemented with ligand 2b to achieve a 2× concentrated mixture of ligand 2b and the inventive compound. To this competitive ligand double the protein concentration for 2b assay: FKBP51FK1 560 nM (2×280 nM) or FKBP52FK1 800 nM (2×400 nM) diluted in assay buffer was added.
(§6) The samples were transferred to black 384-well assay plates (No.: 3575; Corning Life Sciences). After incubation at room temperature for 30 min the fluorescence anisotropy was measured (GENios Pro, Tecan, Männedorf, Switzerland) by using an excitation filters of 485/20 nm and emission filters of 535/25 nm. The binding assays were performed in duplicates in the plate format.
(§7) The competition curves were analyzed by using SigmaPlot9. Data were fitted to a four parameter logistic curve to deduce the IC50 values. For the analysis of K1 values, data were fitted to the following equation (Z. X. Wang, FEBS Lett. 1995, 360, 111-114). A=(Amax−Amin)/[L]t×(([L]t×((2×((Klig+Kcomp+[L]t+[I]t−[R]t)^2−3×(Kcomp×([L]t−[R]t)+Klig×([I]t−[R]t)+[…]))^0.5×COS(ARCCOS((−2×(Klig+Kcomp+[L]t+[I]t−[R]t)^3+9×(Klig+Kcomp+[L]t+[I]t−[R]t)×(Kcomp×([L]t−[R]t)+Klig×([I]t−[R]t)+Klig×Kcomp)−27×(−1×Klig×Kcomp×[R]t))/(2×((((Klig+Kcomp+[L]t+[I]t−[R]t)^2−3×(Kcomp×([L]t−[R]t)+Klig×([I]t−[R]t)+Klig×Kcomp))^3)^0.5)))/3))−(Klig+Kcomp+[L]t+[I]t−[R]t)))/((3×Klig)+((2×((Klig+Kcomp+[L]t+[I]t−[R]t)^2−3×(Kcomp×([L]t−[R]t)+Klig×([I]t−[R]t)+Klig×Kcomp))^0.5×COS(ARCCOS((−2×(Klig+Kcomp+[L]t+[I]t−[R]t)^3+9×(Klig+Kcomp+[L]t+[I]t−[R]t)×(Kcomp×([L]t−[R]t)+Klig×([I]t−[R]t)+Klig×Kcomp)−27×(−1×Klig×Kcomp×[R]t))/(2×((((Klig+Kcomp+[L]t+[I]t−[R]t)^2−3×(Kcomp×([L]t−[R]t)+Klig×([I]t−[R]t)+Klig×Kcomp))^3)^0.5)))/3))−(Klig+Kcomp+[L]t+[I]t−[R]t)))+Amin
(§8) In this equation Klig and Kcomp stand for the Kd values of the used tracer or competing inhibitor, [I]t is referring to the total concentration of the titrated inhibitor.

[2] = biological target: T2, FKBP52 (Homo sapiens, UniProt Q02790); assay: Fluorescence polarization (FP) assay, binding to the FK506-binding domain of FKBP52; details: FK506-binding domain of FKBP52 (FKBP52FK1), competition with fluorescent ligand 2b
T2 sequence (Q02790 50-138 limits assumed): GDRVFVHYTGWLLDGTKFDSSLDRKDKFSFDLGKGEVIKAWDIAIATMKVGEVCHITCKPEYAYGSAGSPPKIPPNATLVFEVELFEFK
Protocol: as §1, §2, §3, §4, §5, §6, §7, §8

Row | Structure (SMILES) | Ki [1] [nM] | Ki [2] [nM]
1 | COCCCN1CC(CO)C2CCCC(C1=O)N2S(=O)(=O)c1cc(Cl)cc(Cl)c1 (stereo in doubt) [Compound J6, (1S,5R,6R)-10-((3,5-dichlorophenyl)sulfonyl)-5-(hydroxymethyl)-3-(3-methoxypropyl)-3,10-diazabicyclo[4.3.1]decan-2-one] | 100 to 500 | 500 to 1000
2 | C=CC1CN(CC(=O)O)C(=O)C2CCCC1N2S(=O)(=O)c1cc(Cl)cc(Cl)c1 (stereo in doubt) [Compound J10, 2-((1S,5R,6R)-10-((3,5-dichlorophenyl)sulfonyl)-2-oxo-5-vinyl-3,10-diazabicyclo[4.3.1]decan-3-yl)acetic acid] | 100 to 500 | 100 to 500
3 | C=CC1CN(CC(N)=O)C(=O)C2CCCC1N2S(=O)(=O)c1cc(Cl)cc(Cl)c1 (stereo in doubt) [Compound J11, 2-((1S,5R,6R)-10-((3,5-dichlorophenyl)sulfonyl)-2-oxo-5-vinyl-3,10-diazabicyclo[4.3.1]decan-3-yl)acetamide] | 100 to 500 | 100 to 500
4 | C#CCN1CC(C=C)C2CCCC(C1=O)N2S(=O)(=O)c1cc(Cl)cc(Cl)c1 (stereo in doubt) [Compound J12, (1S,5R,6R)-10-((3,5-dichlorophenyl)sulfonyl)-3-(prop-2-yn-1-yl)-5-vinyl-3,10-diazabicyclo[4.3.1]decan-2-one] | 100 to 500 | 100 to 500
5 | C=CC1CN(Cc2c[nH]nn2)C(=O)C2CCCC1N2S(=O)(=O)c1cc(Cl)cc(Cl)c1 (stereo in doubt) [Compound J13, (1S,5R,6R)-3-((1H-1,2,3-triazol-4-yl)methyl)-10-((3,5-dichlorophenyl)sulfonyl)-5-vinyl-3,10-diazabicyclo[4.3.1]decan-2-one] | ≤ 100 | ≤ 100
6 | C=CC1CN(Cc2cnccn2)C(=O)C2CCCC1N2S(=O)(=O)c1cc(Cl)cc(Cl)c1 (stereo in doubt) [Compound J14, (1S,5R,6R)-10-((3,5-dichlorophenyl)sulfonyl)-3-(pyrazin-2-ylmethyl)-5-vinyl-3,10-diazabicyclo[4.3.1]decan-2-one] | 100 to 500 | 100 to 500
7 | C=CC1CN(CC#N)C(=O)C2CCCC1N2S(=O)(=O)c1cc(Cl)cc(Cl)c1 (stereo in doubt) [Compound J16, 2-((1S,5R,6R)-10-((3,5-dichlorophenyl)sulfonyl)-2-oxo-5-vinyl-3,10-diazabicyclo[4.3.1]decan-3-yl)acetonitrile] | 100 to 500 | 100 to 500
8 | C=CC1CN(CCNC)C(=O)C2CCCC1N2S(=O)(=O)c1cc(Cl)cc(Cl)c1 (stereo in doubt) [Compound J19, (1S,5R,6R)-10-((3,5-dichlorophenyl)sulfonyl)-3-(2-(methylamino)ethyl)-5-vinyl-3,10-diazabicyclo[4.3.1]decan-2-one] | 100 to 500 | 100 to 500
9 | C=CC1CN(Cc2ccccn2)C(=O)C2CCCC1N2S(=O)(=O)c1cccc(Br)c1 (stereo in doubt) [Compound K5, (1S,5R,6R)-10-((3-bromophenyl)sulfonyl)-3-(pyridin-2-ylmethyl)-5-vinyl-3,10-diazabicyclo[4.3.1]decan-2-one] | ≤ 100 | ≤ 100
10 | C=CC1CN(Cc2ccccn2)C(=O)C2CCCC1N2S(=O)(=O)c1ccc2nc(C)sc2c1 (stereo in doubt) [Compound K6, (1S,5R,6R)-10-((2-methylbenzo[d]thiazol-6-yl)sulfonyl)-3-(pyridin-2-ylmethyl)-5-vinyl-3,10-diazabicyclo[4.3.1]decan-2-one] | ≤ 100 | ≤ 100
11 | C=CC1CN(Cc2ccccn2)C(=O)C2CCCC1N2S(=O)(=O)c1ccc2ncsc2c1 (stereo in doubt) [Compound K9, (1S,5R,6R)-10-(benzo[d]thiazol-6-ylsulfonyl)-3-(pyridin-2-ylmethyl)-5-vinyl-3,10-diazabicyclo[4.3.1]decan-2-one] | 100 to 500 | 100 to 500
